Measurements from patent US9975854B2, “Benzomorphan analogs and use thereof” (Purdue Pharma L.P., priority 2014, dated 2018).

Columns and labels:
μ-opioid receptor = μ-opioid receptor (Homo sapiens (Human), UniProt P35372); assay: μ-opioid receptor [35S]GTPγS functional assay, HEK-293 or CHO cells; type: biochemical; conditions: HEK-293 or CHO cells; for EC50: read-out: GTPγS μ EC50; for Emax: relative to DAMGO
In short: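 Membranes from recombinant human μ-opioid receptor cells (HEK-293, CHO or U-2 OS) at 0.026 mg/mL with saponin, […] and 0.20 nM [35S]GTPγS in HEPES buffer pH 7.4, incubated 30 min at about 25 °C; bound radioactivity by filtration. EC50 from sigmoidal fit; Emax relative to DAMGO.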

κ-opioid receptor [1] = molecular target: T1, κ-opioid receptor (Homo sapiens (Human), UniProt P41145); assay: κ-opioid receptor radioligand dose-displacement binding assay ([3H]-U69,593); conditions: binding affinity, HEK-293 or CHO cells
Procedure: Membranes from recombinant HEK-293 cells, CHO or U-2 OS cells expressing the recombinant human κ opioid receptor (κ) were prepared by lysing cells in ice cold hypotonic buffer (2.5 mM MgCl2, 50 mM HEPES, pH 7.4) (10 mL/10 cm dish) followed by homogenization with a tissue grinder/Teflon pestle. Membranes from a cell line naturally expressing kappa opioid receptors can also be used. Membranes were collected by centrifugation at 30,000×g for 15 min at 4° C. and pellets were resuspended in hypotonic buffer to a final concentration of 1-3 mg/mL. Protein concentrations were determined using the BioRad protein assay reagent with bovine serum albumen as standard. Aliquots of κ receptor membranes were stored at −80° C.
Radioligand dose displacement assays used 0.4 nM [^3H]-U69,593 (GE Healthcare, Piscataway, N.J.; 40 Ci/mmole) with 15 μg membrane protein (recombinant K opioid receptor expressed in HEK 293 cells; in-house prep) in a final volume of 200 μl binding buffer (5% DMSO, 50 mM Trizma base, pH 7.4). Non-specific binding was determined in the presence of 10 μM unlabeled naloxone or U69,593. All reactions were performed in 96-well polypropylene plates for 1 hr at a temperature of about 25° C. Binding reactions were terminated by rapid filtration onto 96-well Unifilter GF/C filter plates (Perkin Elmer, Shelton, Conn.) presoaked in 0.5% polyethylenimine (Sigma). Harvesting was performed using a 96-well tissue harvester (Perkin Elmer, Shelton, Conn.) followed by five filtration washes with 200 μl ice-cold binding buffer. Filter plates were subsequently dried at 50° C. for 1-2 hours. Fifty μl/well scintillation cocktail (Perkin Elmer, Shelton, Conn.) was added and plates were counted in a Packard Top-Count for 1 min/well.
In TABLE 3, binding affinity of certain Compounds of the Invention to the ORL-1, μ-, and κ-opioid receptors was determined as described above in HEK-293 or CHO cells.

κ-opioid receptor [2] = molecular target: T1, κ-opioid receptor; assay: κ-opioid receptor [35S]GTPγS functional assay, HEK-293 or CHO cells; type: biochemical
Procedure: Functional [^35S]GTPγS binding assays were conducted as follows. K opioid receptor membrane solution was prepared by sequentially adding final concentrations of 0.026 μg/μl κ membrane protein (in-house), 10 μg/mL saponin, 3 μM GDP and 0.20 nM [^35S]GTPγS to binding buffer (100 mM NaCl, 10 mM MgCl2, 20 mM HEPES, pH 7.4) on ice. The prepared membrane solution (190 μl/well) was transferred to 96-shallow well polypropylene plates containing 10 μl of 20× concentrated stock solutions of agonist prepared in DMSO. Plates were incubated for 30 min at a temperature of about 25° C. with shaking. Reactions were terminated by rapid filtration onto 96-well Unifilter GF/B filter plates (Perkin Elmer, Shelton, Conn.) using a 96-well tissue harvester (Packard) and followed by three filtration washes with 200 μl ice-cold binding buffer (10 mM NaH2PO4, 10 mM Na2HPO4, pH 7.4). Filter plates were subsequently dried at 50° C. for 2-3 hours. Fifty μl/well scintillation cocktail (Perkin Elmer, Shelton, Conn.) was added and plates were counted in a Packard Top-Count for 1 min/well.
κ GTP EC50 is the concentration of a compound providing 50% of the maximal response for the compound at a κ receptor. […]
In TABLE 4, activity response of certain Compounds of the Invention to the μ- and κ-opioid receptors was determined as described above for functional assays using HEK-293 or CHO cells.

Row | Structure (SMILES) | EC50 (μ-opioid receptor) [µM] | Emax (μ-opioid receptor) [%] | Ki (κ-opioid receptor [1]) [µM] | EC50 (κ-opioid receptor [2]; bound given in uM) [µM] | Emax (κ-opioid receptor [2]; relative to U69,593) [%] | Ki (κ-opioid receptor [1]; bound given in uM) [µM]
1 | CN1CC[C@@]2(C)c3cc(O)ccc3C[C@@H]1[C@@H]2NCCc1ccc(S(C)(=O)=O)cc1 [Compound 10, (2R,6S,11R)-3,6-dimethyl-11-((4-(methylsulfonyl)phenethyl)amino)-1,2,3,4,5,6-hexahydro-2,6-methanobenzo[d]azocin-8-ol] | 0.225 ± 0.0608 | 38.5 ± 2.33 | 0.301 ± 0.00979 | > 20 | 1 | 
2 | CC(C)S(=O)(=O)N1CCC(CN(C)[C@H]2[C@H]3Cc4ccc(O)cc4[C@]2(C)CCN3C)CC1 [Compound 55, (2R,6S,11R)-11-(((1-(isopropylsulfonyl)piperidin-4-yl)methyl)(methyl)amino)-3,6-dimethyl-1,2,3,4,5,6-hexahydro-2,6-methanobenzo[d]azocin-8-ol] | 0.00328 ± 0.00039 | 52 ± 4.85 |  |  |  | > 20
3 | CN1CC[C@@]2(C)c3cc(O)ccc3C[C@@H]1[C@@H]2N(C)CC1CCN(CC(C)(C)O)CC1 [Compound 97, (2R,6S,11R)-11-(((1-(2-hydroxy-2-methylpropyl)piperidin-4-yl)methyl)(methyl)amino)-3,6-dimethyl-1,2,3,4,5,6-hexahydro-2,6-methanobenzo[d]azocin-8-ol] | 0.0226 ± 0.00234 | 47 ± 1.53 | 0.00212 ± 0.00055 |  |  | 
